The first experiment deals with RAW-Lucia NF-κB cells. Description: NF-κB luciferase reporter assay. In kind it is cell-based, mouse. To be noted: peptide 100 μg/mL, 12 h, luminescence, p < 0.05 vs control group. An excerpt: (§1) The ARE sequences and NF-κB element sequences are referenced in [52, 54]. Based on the sequence information, plasmids pCD-ARE-puro and pCDH-NF-κB-puro were constructed. These plasmids, along with pMD2.G and psPAX2, were transfected into HEK293T cells using a three-plasmid virus packaging system to produce viruses. The virus supernatants were then used to infect IPEC-J2 or RAW 264.7 cells, followed by positive clone screening with Puromycin. For the testing of stable cell lines, tBHQ was used for IPEC-J2-Lucia ARE cells and LPS was used for RAW-Lucia NF-κB cells.
(§2) Candidate peptides (100 μg/mL) were incubated with RAW-Lucia NF-κB or IPEC-J2-Lucia ARE cells (3 × 10⁵ cells/well) in 96-well plates for 12 h. LPS (100 ng/mL) was used as the positive control for the RAW-Lucia NF-κB cells and tBHQ (10 μM) was used as the positive control for the IPEC-J2-Lucia ARE cells. Subsequently, 15 μL of the culture supernatant was mixed with 50 μL of detection buffer (50 mM HEPES, pH 7.0; 50 mM NaCl; 0.05% CHAPS; 10 mM EDTA; and 1 μM coelenterazine). Luminescence was measured using a multimode plate reader, and relative luminescence units (RLUs) were calculated.
In general terms: Reporter assays use an easily measured gene product as a stand-in for the process of interest.
“YGPSSYGYGKEKKEVVE [YTa, hybrid peptide of parent peptides Y and Ta]”: the “Activation of the NF-κB signaling pathway (result in words)” value (shortened to “Activation”) is “significantly activated”.
Turning to “RKDVYRGPPP [PR, hybrid peptide of parent peptides P and R]”, the “Activation” value is given as “significantly activated”.
On to “RGPPPRKDVY [RP, hybrid peptide of parent peptides R and P]”, for which the “Activation” value was “significantly activated”.
Still for that read-out and setting: under “EVVEEAYGPSSYGYG [TbY, hybrid peptide of parent peptides Tb and Y]” stands “significantly activated”.

Another experiment has as its system IPEC-J2-Lucia ARE cells. As to the kind of experiment: ARE luciferase reporter assay. In kind it is cell-based. As to conditions: peptide 100 μg/mL, 12 h, luminescence.
Excerpt: as §1, §2
For “QLNWDRKDVY [MP, hybrid peptide of parent peptides M and P]”, the “Stimulation of the ARE pathway (result in words)” value is listed as “stimulate the ARE pathway”.
Take “KEKKEVVEYGPSSYGYG [TaY, hybrid peptide of parent peptides Ta and Y]”: the “Stimulation of the ARE pathway (result in words)” value is reported as “stimulate the ARE pathway”.
The same measure, in the same setting: under “RKDVYYGPSSYGYG [PY, hybrid peptide of parent peptides P and Y]” stands “stimulate the ARE pathway”; under “YGPSSYGYGRKDVY [YP, hybrid peptide of parent peptides Y and P]”, “stimulate the ARE pathway”.

In a further experiment the test system is TNF-α. Description: ELISA of TNF-α in RAW 264.7 culture supernatant. The format is cell-based, mouse. As to conditions: RAW 264.7 cells, peptide 100 μg/mL, 24 h, vs CON group. Here is the method: (§3) RAW 264.7 macrophages (2 × 10^6 cells/well) were seeded in 6-well plates and incubated for 12 h. Hybrid peptides and parent peptides were added to achieve a final concentration of 100 μg/mL, LPS (100 ng/mL) as a positive control. After 24 h of incubation, the culture supernatants were collected, and the levels of TNF-α, IL-6, and IL-1β were measured using ELISA kits according to the manufacturer’s instructions (Solarbio, Beijing, China).
In general terms: In an ELISA, binding on a coated surface is turned into a signal by an enzyme label.
With “QLNWDRKDVY [MP, hybrid peptide of parent peptides M and P]”, the “Expression of TNF-α (result in words)” value is listed as “significantly upregulated”.
On the same count and under the same terms, under “KEKKEVVEYGPSSYGYG [TaY, hybrid peptide of parent peptides Ta and Y]” stands “significantly upregulated”; under “RKDVYRGPPP [PR, hybrid peptide of parent peptides P and R]”, “significantly upregulated”.
Same read-out and setting: under “RGPPPRKDVY [RP, hybrid peptide of parent peptides R and P]” stands “significantly upregulated”; under “EVVEEAYGPSSYGYG [TbY, hybrid peptide of parent peptides Tb and Y]”, “significantly upregulated”.

The test system of a further experiment is IL-6. As to the kind of experiment: ELISA of IL-6 in RAW 264.7 culture supernatant. In kind it is cell-based, mouse. As to conditions: RAW 264.7 cells, peptide 100 μg/mL, 24 h, vs CON group. Here is the method: as §3
For “QLNWDRKDVY [MP, hybrid peptide of parent peptides M and P]”, the “Expression of IL-6 (result in words)” value is on record as “significantly upregulated”.
On to “YGPSSYGYGKEKKEVVE [YTa, hybrid peptide of parent peptides Y and Ta]”, for which the “Expression of IL-6 (result in words)” value is listed as “significantly increased”.
Same read-out and setting: under “KEKKEVVEYGPSSYGYG [TaY, hybrid peptide of parent peptides Ta and Y]” stands “significantly upregulated”; under “RKDVYRGPPP [PR, hybrid peptide of parent peptides P and R]”, “significantly upregulated”.
Regarding “RGPPPRKDVY [RP, hybrid peptide of parent peptides R and P]”, the “Expression of IL-6 (result in words)” value is “significantly upregulated”.
The same measure, in the same setting: under “YGPSSYGYGEVVEEA [YTb, hybrid peptide of parent peptides Y and Tb]” stands “particularly upregulated”; under “EVVEEAYGPSSYGYG [TbY, hybrid peptide of parent peptides Tb and Y]”, “significantly upregulated”.

Another experiment concerns IL-1β. As to the kind of experiment: ELISA of IL-1β in RAW 264.7 culture supernatant. The format is cell-based, mouse. As to conditions: RAW 264.7 cells, peptide 100 μg/mL, 24 h, vs CON group. The procedure:
as §3
“QLNWDRKDVY [MP, hybrid peptide of parent peptides M and P]”: the “Expression of IL-1β (result in words)” value was “significantly upregulated”.
For the sequence “KEKKEVVEYGPSSYGYG [TaY, hybrid peptide of parent peptides Ta and Y]”, the “Expression of IL-1β (result in words)” value is on record as “significantly upregulated”.
Take “RKDVYRGPPP [PR, hybrid peptide of parent peptides P and R]”: the “Expression of IL-1β (result in words)” value is “significantly upregulated”.
On the same count and under the same terms, under “RGPPPRKDVY [RP, hybrid peptide of parent peptides R and P]” stands “significantly upregulated”.
Turning to “YGPSSYGYGEVVEEA [YTb, hybrid peptide of parent peptides Y and Tb]”, the “Expression of IL-1β (result in words)” value is “particularly upregulated”.
Consider “EVVEEAYGPSSYGYG [TbY, hybrid peptide of parent peptides Tb and Y]”, for which the “Expression of IL-1β (result in words)” value was “significantly upregulated”.

For the next experiment, the system named is HepG2 cells. Description: H2O2-induced oxidative damage model in HepG2 cells. To be noted: peptide 100 ng/mL pre-incubation 2 h, then H2O2 650 μM 6 h, CCK-8. The format is cell-based. Here is the method: HepG2 cells (2 × 10^5 cells/well) were seeded into 96-well plates and incubated overnight at 37 °C with 5% CO2. The supernatant was removed, and hybrid or parent peptides were added at a final concentration of 100 ng/mL for 2 h. H2O2 (Sigma-Aldrich, St. louis, MO, USA) was then added to a final concentration of 650 μM and the cells were further incubated for 6 h. Cell viability was assessed using the CCK-8 assay.
Regarding “YGPSSYGYGKEKKEVVE [YTa, hybrid peptide of parent peptides Y and Ta]”, the “Increase of HepG2 cell viability compared to the H2O2-treated group” value was 12%.

Still in this experiment, the particulars now being: peptide 100 ng/mL pre-incubation 2 h, then H2O2 650 μM 6 h, CCK-8 viability, vs model group.
For “QLNWDRKDVY [MP, hybrid peptide of parent peptides M and P]”, the “Protective effect against H2O2-induced oxidative damage (result in words)” value is recorded as “significant differences compared to the model group”.
The same measure, in the same setting: under “YGPSSYGYGKEKKEVVE [YTa, hybrid peptide of parent peptides Y and Ta]” stands “significant differences compared to the model group”; under “KEKKEVVEYGPSSYGYG [TaY, hybrid peptide of parent peptides Ta and Y]”, “significant differences compared to the model group”.
On the same count and under the same terms, under “RKDVYYGPSSYGYG [PY, hybrid peptide of parent peptides P and Y]” stands “significant differences compared to the model group”.

The values above are taken from PMC11764585, “Hybridization Design and High-Throughput Screening of Peptides with Immunomodulatory and Antioxidant Activities” (International Journal of Molecular Sciences, 2025).
